Results reported in US11390621B2, “Chiral indole compounds and their use” (ARIAGEN, INC., priority 2019, dated 2022).
Values joined by “and” are separate entries in the source; they are usually repeats but may differ in a detail not shown here. Identical values can stand only once. Like-named read-outs stand apart in the source and are kept apart here.

Tests used:
[1] = target: T1, CYP3A4 (Homo sapiens, UniProt P08684); assay: CYP profiling: human liver microsomes with CYP3A4 inhibitor ketoconazole; assay type: in vitro ADME; design: % Compound Metabolized at 30 min, CYP3A4 Inhibitor: concentration or dose not given beside the values; conditions: HLMs; for % Inhibition Relative to Negative Control, 3A4: 30 min
T1 construct: from tissue; host or cells: human liver microsomes
T1 sequence (P08684 whole entry): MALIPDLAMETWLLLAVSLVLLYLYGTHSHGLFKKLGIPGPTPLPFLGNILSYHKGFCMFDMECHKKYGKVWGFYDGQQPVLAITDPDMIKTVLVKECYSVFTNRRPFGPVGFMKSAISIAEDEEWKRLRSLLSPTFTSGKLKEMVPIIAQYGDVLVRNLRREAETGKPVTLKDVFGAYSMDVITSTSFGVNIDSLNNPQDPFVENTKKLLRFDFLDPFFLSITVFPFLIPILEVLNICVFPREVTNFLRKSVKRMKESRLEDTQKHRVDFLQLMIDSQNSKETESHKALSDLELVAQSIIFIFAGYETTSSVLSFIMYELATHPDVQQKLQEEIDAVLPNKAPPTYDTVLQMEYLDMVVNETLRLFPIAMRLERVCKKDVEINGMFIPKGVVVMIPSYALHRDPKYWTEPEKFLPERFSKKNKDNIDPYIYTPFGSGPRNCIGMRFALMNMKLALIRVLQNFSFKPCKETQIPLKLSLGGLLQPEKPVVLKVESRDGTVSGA
Protocol: In order to investigate the contributions of CYP1A2 and CYP3A4 to the metabolism of the compounds of the present disclosure, human liver microsomes were incubated with the test compounds for 30 minutes in the presence of selective chemical inhibitors furafylline (1A2) and ketoconazole (3A4).

[2] = tested on: human hepatocytes; assay: Hepatocyte intrinsic clearance assay (metabolic stability), human hepatocytes; assay type: in vitro ADME; conditions: Human Hepatocytes; for EH (hepatic extraction ratio): well stirred liver model, fu=1
From the text: (§1) The liver is an important organ in the body for drug metabolism. This Example describes hepatocyte intrinsic clearance assays using both human and rat hepatocytes to evaluate the metabolic stability of the indole compounds disclosed herein. The parameters measured include t1/2 (half-life), CLint (intrinsic clearance), and EH (hepatic extraction ratio).
(§2) Testosterone (Lot FE111011-01) was obtained from Cerilliant (Round Rock, Tex.). 7-hydroxycoumarin (Lot 11631ED) was obtained from Sigma Aldrich (St. Louis, Mo.). Cryopreserved human hepatocytes pooled from ten donor males (X008001), cryopreserved male IRC/CD-1 mouse hepatocytes (M005052), INVITROGRO HI Medium (incubation), and INVITROGRO HT Medium (thawing) were obtained from Bioreclamation IVT (Baltimore, Md.). All solvents were obtained from commercial sources and used without further purification.
(§3) Each test compound was prepared as a 1 mM stock solution in DMSO. A 2 μM solution of test compound and positive controls were prepared in INVITROGRO HI Medium (incubation). These solutions were pre-warmed in a sterile incubator set to maintain 37° C., 5% CO2, and 98% humidity. Cryopreserved hepatocytes were prepared at a concentration of 2×10^6 living cells/mL in incubation media and pre-warmed in the incubator. The compound solutions and hepatocyte mixtures were then combined at a ratio of 1:1 (v:v). The final volume of the reaction mixture was 750 μL, containing 1 μM test compound (10 μM for 7-hydroxycoumarin) and […]. The reaction mixture was placed in the incubator on a plate shaker. After 0, 15, 30, 60, 90, and 120 minutes of incubation, 100 μL of reaction mixtures were removed from the incubation plate and mixed with 150 μL of ice-cold acetonitrile in a designated well of a 96-well crash plate. The 96-well crash plate was placed on ice for 15 min, and samples were centrifuged (3,600 RPM, 10 min, 4° C.) to precipitate protein. The supernatants were diluted 1:1 (v:v) with water containing 0.15 μM verapamil and/or 1 μM tolbutamide (internal standards for positive and negative modes, respectively) in a 96-well shallow injection plate. This plate was sealed for LC-MS analysis. All measurements were done in duplicate.
(§4) The residual compound remaining (% R) was determined from LC-MS peak areas by comparison to the zero time point. Metabolic half-life (t1/2) and intrinsic clearance (CLint) values were calculated from the slope of the plot of ln (% R) vs. time and the concentration of hepatocytes present in the incubation. Percent remaining at 60 minutes was calculated by plugging in the 60 minute value into the slope equation generated by the percent remaining time points.
(§5) In vivo hepatic clearance CLH was calculated using the well stirred liver model according to the following equation:
(§6) [formula] where QH is the total liver blood flow, fu is unbound fraction of the drug, and CL′int is defined as follows: CL′int=CLint×(10^6 cells/g of liver weight)×(g liver weight/kg of body weight). In the first approximation, used in this study, fu=1.
(§7) Hepatic extraction ratio EH was calculated using the following equation:
(§8) [formula] Corresponding physiological parameters used in calculations for all species are shown below in Table 3.

[3] = tested on: rat hepatocytes; assay: Hepatocyte intrinsic clearance assay (metabolic stability), rat hepatocytes; assay type: in vitro ADME; conditions: Rat Hepatocytes; well stirred liver model, fu=1
From the text: as §1, §2, §3, §4, §5, §6, §7, §8

[4] = Hepatocyte intrinsic clearance assay (metabolic stability), human hepatocytes; assay type: in vitro ADME; conditions: male, human, cryopreserved pooled hepatocytes, Human Hepatocytes, 1 μM test compound
From the text: as §1, §2, §3, §4, §5, §6, §7, §8

[5] = In vivo pharmacokinetic studies in rats; design: species or system SD rats; conditions: for Tmax: read-out: Tmax
Protocol: This example describes pharmacokinetic (PK) studies of ARI-164, ARI-165, ARI-186, ARI-224, and ARI-226 in mice and rats. In the present studies, the test compounds were given to groups of mice and/or rats (N=3 in each group), intravenously (IV) at 2 mg/kg or orally (PO) at 10, 30, or 40 mg/kg. ARI-186, ARI-224 and ARI-226 were given orally to rats QD for 5 days at 10 mg/kg to assess whether decreased susceptibility to CYP1A1/1A2 metabolism would lead to increased accumulation. IV doses were formulated in DMSO, while PO doses were formulated in a 50/50 mixture of PEG400 and Tween 80 (single dose mouse and rat studies for ARI-164, ARI-165, ARI-186, ARI-224, ARI-226) or PEG400/Kolliphor HS15/Oleic Acid 45/45/10 (ARI-164 repeat dose rat study). Blood samples were collected at pre-dose and over a period of 24 hours post-dose. Plasma concentrations of the test compounds were determined by HPLC.

[6] = SD, rat, plasma, iv, 2 mg/kg, rats, single 2 mg/kg IV dose, Mean of 3 animals
[7] = SD, rat, plasma, iv, 2 mg/kg, rats, single 2 mg/kg IV dose, individual animal
[8] = Sprague-Dawley (SD), rat, plasma, iv, 2 mg/kg, rats, single 2 mg/kg IV dose, Mean of 3 animals
[9] = Sprague-Dawley (SD), rat, plasma, po, 10 mg/kg, rats, single 10 mg/kg PO dose, Mean of 3 animals
[10] = Sprague-Dawley (SD), rat, plasma, po, 10 mg/kg, rats, single 10 mg/kg PO dose, individual animal
[11] = rats, single 2 mg/kg IV dose, individual animal, 2 mg/kg
[12] = rats, single 10 mg/kg PO dose, individual animal, 10 mg/kg

With CCC(=O)c1csc(C(=O)c2c[nH]c3cc(F)ccc23)n1 [ARI-143, 1-(2-(6-fluoro-1H-indole-3-carbonyl)thiazol-4-yl)propan-1-one] the “% Compound Metabolized at 30 min, CYP3A4 Inhibitor” value [1] was 82% and 92%, the “% Inhibition Relative to Negative Control, 3A4” value [1] was “None” and the “EH (hepatic extraction ratio)” value [2] was 26.1% and 25.5% and 25.7%. The “EH (hepatic extraction ratio)” value [3] was 48.0% and 47.8% and 48.5% and 49.7% and 74.6%.
In the case of CC[C@H](O)c1csc(C(=O)c2c[nH]c3cc(F)ccc23)n1 [ARI-164, (S)-(6-Fluoro-1H-indol-3-yl)(4-(1-hydroxypropyl)thiazol-2-yl)methanone], the “% Compound Metabolized at 30 min, CYP3A4 Inhibitor” value [1] is reported as 34%, the “% Inhibition Relative to Negative Control, 3A4” value [1] is reported as 8% and the CLint ([2]; 1 μM test compound) is reported as 13.556 μL/min/10^6 cells and 15.446 μL/min/10^6 cells and 13.712 μL/min/10^6 cells and 15.383 μL/min/10^6 cells. The “EH (hepatic extraction ratio)” value [2] was 25.3% and 24.6% and 25.2% and 19.9%, the half-life at 1 μM [4] was 0.7 h and the hepatocyte CLint at 1 μM [4] was 15.7 µL/min/1e6 cells. The AUC(0-inf) [5, 6] was 21.5 µg·h/mL, the clearance [5, 6] was 0.0933 L/h/kg and the AUC(0-t) ([5]; SD, rat, plasma, iv, 2 mg/kg, rats, single 2 mg/kg IV dose, Mean of 3 animals, read-out: AUClast) was 21.4 µg·h/mL. For the same compound, the AUC(0-inf) [5, 7] was 20.5 µg·h/mL, the clearance [5, 7] was 0.0978 L/h/kg and the half-life [5, 7] was 3.91 h. It also gave an AUC(0-t) ([5]; SD, rat, plasma, iv, 2 mg/kg, rats, single 2 mg/kg IV dose, individual animal, read-out: AUClast) of 20.3 µg·h/mL, a Cmax ([5]; SD, rat, plasma, iv, 2 mg/kg, rats, single 2 mg/kg IV dose, individual animal, read-out: Cmax) of 42.2 µg/mL and a Tmax [5, 7] of 0.083 h. For the same compound, the MRT inf [5, 8] was 1.69 h, the MRT last [5, 8] was 1.63 h and the half-life [5, 8] was 2.85 h. It also gave a Cmax ([5]; Sprague-Dawley (SD), rat, plasma, iv, 2 mg/kg, rats, single 2 mg/kg IV dose, Mean of 3 animals, read-out: Cmax) of 40.7 µg/mL, a Tmax [5, 8] of 0.083 h and a Vd ([5]; Sprague-Dawley (SD), rat, plasma, iv, 2 mg/kg, rats, single 2 mg/kg IV dose, Mean of 3 animals, read-out: Vss) of 0.155 L/kg. For the same compound, the AUC(0-inf) [5, 9] was 2.09 µg·h/mL, the MRT inf [5, 9] was 2.87 h and the MRT last [5, 9] was 2.85 h. For the same compound, the half-life [5, 9] was 1.37 h, the AUC(0-t) ([5]; Sprague-Dawley (SD), rat, plasma, po, 10 mg/kg, rats, single 10 mg/kg PO dose, Mean of 3 animals, read-out: AUClast) was 2.09 µg·h/mL and the Cmax ([5]; Sprague-Dawley (SD), rat, plasma, po, 10 mg/kg, rats, single 10 mg/kg PO dose, Mean of 3 animals, read-out: Cmax) was 0.511 µg/mL. For the same compound, the Tmax [5, 9] was 1.67 h, the AUC(0-inf) [5, 10] was 2.11 µg·h/mL and the MRT inf [5, 10] was 2.65 h. The MRT last [5, 10] was 2.64 h, the AUC(0-t) ([5]; Sprague-Dawley (SD), rat, plasma, po, 10 mg/kg, rats, single 10 mg/kg PO dose, individual animal, read-out: AUClast) was 2.11 µg·h/mL and the Cmax ([5]; Sprague-Dawley (SD), rat, plasma, po, 10 mg/kg, rats, single 10 mg/kg PO dose, individual animal, read-out: Cmax) was 0.532 µg/mL. The Tmax [5, 10] was 2 h, the bioavailability ([5]; Sprague-Dawley (SD), rat, plasma, rats, 10 mg/kg PO vs 2 mg/kg IV, read-out: F (Bioavailability)) was 1.94% and the Cmax/Dose ([5]; male rats, repeat 30 mg/kg oral dose, Day 1, Mean) was 16.6 kg·ng/mL/mg. The “Tlast^a” value ([5]; male rats, repeat 30 mg/kg oral dose, Day 1, Mean row) was 8 h, the Cmax/Dose ([5]; male rats, repeat 30 mg/kg oral dose, Day 7, Mean) was 0.245 kg·ng/mL/mg and the “Tlast^a” value ([5]; male rats, repeat 30 mg/kg oral dose, Day 7, range printed in SD row) was “(1-4) hr”. For the same compound, the Cmax at 1 day ([5]; male, Sprague-Dawley (SD), rat, plasma, po, 30 mg/kg, male rats, repeat 30 mg/kg oral dose, Day 1, Mean) was 0.499 µg/mL, the Tmax at 1 day ([5]; male, Sprague-Dawley (SD), rat, plasma, po, 30 mg/kg, male rats, repeat 30 mg/kg oral dose, Day 1, Mean row, read-out: Tmax^a) was 1 h and the AUC(0-t) ([5]; male, Sprague-Dawley (SD), rat, plasma, po, 30 mg/kg, male rats, repeat 30 mg/kg oral dose, Day 1, Mean, read-out: AUCTlast) was 1.43 µg·h/mL. The Cmax at 7 day ([5]; male, Sprague-Dawley (SD), rat, plasma, po, 30 mg/kg, male rats, repeat 30 mg/kg oral dose, Day 7, Mean) was 0.00293 µg/mL, the Tmax at 7 day ([5]; male, Sprague-Dawley (SD), rat, plasma, po, 30 mg/kg, male rats, repeat 30 mg/kg oral dose, Day 7, Mean row) was 1 h and the “decrease in exposure after repeat oral dosing” value ([5]; rats, 30 mg/kg QD) was “greater than 90%”. The AUCinf [5, 11] was 23 µg·h/mL and 21 µg·h/mL, the AUClast [5, 11] was 23 µg·h/mL and 21 µg·h/mL and the Cl [5, 11] was 0.0871 L/h/kg and 0.0951 L/h/kg. For the same compound, the Cmax [5, 11] was 35.4 µg/mL and 44.5 µg/mL, the MRTinf [5, 11] was 1.53 h and 2.5 h and 1.04 h and the MRTlast [5, 11] was 1.38 h and 2.49 h and 1.03 h. The T1/2 [5, 11] was 2.39 h and 2.24 h, the Vss [5, 11] was 0.149 L/kg and 0.218 L/kg and 0.0986 L/kg and the AUCinf [5, 12] was 2.66 µg·h/mL and 1.5 µg·h/mL. The AUClast [5, 12] was 2.65 µg·h/mL and 1.5 µg·h/mL, the Cmax [5, 12] was 0.646 µg/mL and 0.354 µg/mL and the MRTinf [5, 12] was 3.05 h and 2.92 h. For the same compound, the MRTlast [5, 12] was 3.02 h and 2.88 h, the T1/2 [5, 12] was 0.56 h and 0.746 h and 2.82 h and the “EH (hepatic extraction ratio)” value [3] was 33.3% and 34.6% and 28.8% and 35.0% and 48.8%.
